This passage reports IC50 results from patent US8471005B2 (Cephalon, Inc., priority 2008, dated 2013).

In one experiment the target is T1, JAK2 (Homo sapiens, UniProt O60674).
T1 construct: host or cells: baculovirus expression system
In words: Recombinant Human JAK2 Kinase Assay (TRF). Type of experiment: biochemical. The note with it: JAK2 kinase inhibition, 0.2 μM ATP; read-out: JAK2 Potency. In a few lines: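 Kinase activity of baculovirus-expressed JAK2 is followed on a surface-immobilised biotinylated peptide, with the reaction run for 20 min at room temperature in buffer containing 0.2 μM ATP and manganese. Phosphorylation is read with Eu-N1 PY100 antibody.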

In another experiment the target is T2, ALK (Homo sapiens, UniProt Q9UM73).
T2 construct: host or cells: baculovirus expression system
T2 sequence (Q9UM73 19-1620): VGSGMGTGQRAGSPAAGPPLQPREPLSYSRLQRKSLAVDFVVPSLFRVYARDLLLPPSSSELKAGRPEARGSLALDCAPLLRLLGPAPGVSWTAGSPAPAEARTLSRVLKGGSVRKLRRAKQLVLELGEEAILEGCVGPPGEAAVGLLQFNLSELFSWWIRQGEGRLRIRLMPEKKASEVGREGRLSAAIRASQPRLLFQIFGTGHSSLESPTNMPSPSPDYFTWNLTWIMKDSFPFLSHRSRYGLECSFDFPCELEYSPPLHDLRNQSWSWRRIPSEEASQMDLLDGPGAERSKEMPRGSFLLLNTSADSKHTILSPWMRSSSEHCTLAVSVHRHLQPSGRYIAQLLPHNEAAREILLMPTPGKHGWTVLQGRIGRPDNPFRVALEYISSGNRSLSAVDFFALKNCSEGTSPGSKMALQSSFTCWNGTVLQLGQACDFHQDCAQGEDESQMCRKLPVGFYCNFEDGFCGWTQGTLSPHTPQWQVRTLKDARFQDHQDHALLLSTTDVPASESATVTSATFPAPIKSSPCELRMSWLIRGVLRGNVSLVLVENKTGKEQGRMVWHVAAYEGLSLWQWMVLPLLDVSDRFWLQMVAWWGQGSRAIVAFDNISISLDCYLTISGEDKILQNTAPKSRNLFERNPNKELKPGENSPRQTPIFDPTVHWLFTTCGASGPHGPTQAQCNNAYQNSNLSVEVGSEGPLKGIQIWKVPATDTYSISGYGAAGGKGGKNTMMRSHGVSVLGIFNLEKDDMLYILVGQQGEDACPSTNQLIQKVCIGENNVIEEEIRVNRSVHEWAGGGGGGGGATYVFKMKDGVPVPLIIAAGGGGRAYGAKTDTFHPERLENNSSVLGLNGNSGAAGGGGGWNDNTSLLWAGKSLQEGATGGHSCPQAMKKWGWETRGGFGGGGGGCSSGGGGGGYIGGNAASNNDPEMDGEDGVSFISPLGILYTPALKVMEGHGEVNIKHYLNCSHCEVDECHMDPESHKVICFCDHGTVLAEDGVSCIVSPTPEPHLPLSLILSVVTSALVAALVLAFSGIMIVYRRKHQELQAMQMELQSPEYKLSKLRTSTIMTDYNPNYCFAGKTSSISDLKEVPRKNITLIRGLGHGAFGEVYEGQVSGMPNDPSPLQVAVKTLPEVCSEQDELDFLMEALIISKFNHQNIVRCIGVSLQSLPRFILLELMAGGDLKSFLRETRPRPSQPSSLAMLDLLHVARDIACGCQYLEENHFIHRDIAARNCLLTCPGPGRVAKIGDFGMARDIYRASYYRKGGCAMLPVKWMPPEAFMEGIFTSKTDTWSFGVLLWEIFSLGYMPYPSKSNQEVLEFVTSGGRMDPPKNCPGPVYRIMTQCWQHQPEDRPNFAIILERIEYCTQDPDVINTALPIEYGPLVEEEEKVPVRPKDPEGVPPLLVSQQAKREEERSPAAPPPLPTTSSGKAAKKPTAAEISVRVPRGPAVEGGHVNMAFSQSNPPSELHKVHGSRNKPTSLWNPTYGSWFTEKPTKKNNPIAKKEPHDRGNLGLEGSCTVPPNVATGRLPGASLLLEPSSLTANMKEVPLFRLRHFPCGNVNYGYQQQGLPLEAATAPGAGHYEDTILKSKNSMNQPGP
As to the kind of experiment: ALK Kinase Assay (ELISA/TRF, PLC-γ substrate). Type of experiment: biochemical. To be noted: ALK kinase inhibition, 1 μM ATP; read-out: ALK Potency. In a few lines: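 PLC-γ substrate coated at 10 μg/mL in TBS; reaction started with 30 ng/ml ALK, run 15 min at 37° C. Phosphoproduct detected by TRF with Eu-N1-labeled PT66 anti-phosphotyrosine antibody. IC50 from sigmoidal variable-slope fit of percent inhibition versus log concentration.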
In general terms: ELISA stands for enzyme-linked immunosorbent assay.

T1 sequence (O60674 whole entry): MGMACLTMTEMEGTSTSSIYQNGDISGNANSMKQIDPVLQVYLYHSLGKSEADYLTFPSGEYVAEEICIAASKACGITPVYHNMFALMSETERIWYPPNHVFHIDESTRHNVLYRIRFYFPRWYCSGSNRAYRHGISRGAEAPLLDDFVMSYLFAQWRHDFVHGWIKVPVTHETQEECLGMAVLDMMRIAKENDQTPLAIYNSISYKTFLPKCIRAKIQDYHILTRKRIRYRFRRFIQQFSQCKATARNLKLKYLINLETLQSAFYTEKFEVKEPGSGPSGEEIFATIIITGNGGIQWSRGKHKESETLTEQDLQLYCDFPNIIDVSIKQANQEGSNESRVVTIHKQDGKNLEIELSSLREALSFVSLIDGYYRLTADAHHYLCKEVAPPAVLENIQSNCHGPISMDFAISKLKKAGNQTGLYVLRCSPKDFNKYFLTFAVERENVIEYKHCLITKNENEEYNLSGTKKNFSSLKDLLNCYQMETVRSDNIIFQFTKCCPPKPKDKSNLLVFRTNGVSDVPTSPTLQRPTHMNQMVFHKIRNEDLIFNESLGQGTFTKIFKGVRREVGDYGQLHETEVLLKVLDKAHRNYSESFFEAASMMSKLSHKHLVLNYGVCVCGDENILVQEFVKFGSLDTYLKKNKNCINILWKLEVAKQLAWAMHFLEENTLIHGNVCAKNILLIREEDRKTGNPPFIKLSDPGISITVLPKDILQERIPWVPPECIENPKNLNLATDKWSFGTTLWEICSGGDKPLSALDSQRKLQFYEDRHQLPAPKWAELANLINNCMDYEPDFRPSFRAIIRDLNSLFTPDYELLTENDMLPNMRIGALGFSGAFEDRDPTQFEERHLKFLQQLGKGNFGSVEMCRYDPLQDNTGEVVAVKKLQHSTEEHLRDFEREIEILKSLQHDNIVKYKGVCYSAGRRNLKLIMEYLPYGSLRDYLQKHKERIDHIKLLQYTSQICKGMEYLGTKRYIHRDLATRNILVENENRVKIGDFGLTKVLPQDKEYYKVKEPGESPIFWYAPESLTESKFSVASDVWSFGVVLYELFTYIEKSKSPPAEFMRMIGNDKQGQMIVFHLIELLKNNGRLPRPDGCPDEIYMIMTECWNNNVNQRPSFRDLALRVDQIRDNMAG

Regarding `COc1ccccc1-c1ccc2cnc(Nc3ccc4c(c3OC)CN(C3CCN(C)CC3)C4)nn12` [Example 853, [4-Methoxy-2-(1-methyl-piperidin-4-yl)-2,3-dihydro-1H-isoindol-5-yl]-[7-(2-methoxy-phenyl)-pyrrolo[2,1-f][1,2,4]triazin-2-yl]-amine], the IC50 on JAK2 is 100 to 1000 nM; at ALK, < 100 nM.

For the compound `COc1cc(C2CCN(CC(N)=O)CC2)ccc1Nc1ncc2ccc(-c3ccccc3-n3cccn3)n2n1` [Example 854, 2-(4-{3-Methoxy-4-[7-(2-pyrazol-1-yl-phenyl)-pyrrolo[2,1-f][1,2,4]triazin-2-ylamino]-phenyl}-piperidin-1-yl)-acetamide], the IC50 is > 10000 nM on JAK2 and < 100 nM on ALK.

`COc1cc(C2CCN(CC(N)=O)CC2)ccc1Nc1ncc2ccc(-c3ccncc3OC)n2n1` [Example 857, 2-(4-{3-Methoxy-4-[7-(3-methoxy-pyridin-4-yl)-pyrrolo[2,1-f][1,2,4]triazin-2-ylamino]-phenyl}-piperidin-1-yl)-acetamide]: the figures for the IC50 on JAK2 and on ALK were 100 to 1000 nM and < 100 nM, respectively.

With `COc1cc2c(cc1Nc1ncc3ccc(-c4ccccc4OC)n3n1)CN(CC(N)=O)C2` [Example 864, 2-{5-Methoxy-6-[7-(2-methoxy-phenyl)-pyrrolo[2,1-f][1,2,4]triazin-2-ylamino]-1,3-dihydro-isoindol-2-yl}-acetamide], the IC50 at JAK2 and on ALK was < 100 nM throughout.

For the compound `COc1cc(C2CCN(CC(C)(C)O)CC2)ccc1Nc1ncc2ccc(-c3ccccc3OC)n2n1` [Example 865, 1-(4-{3-Methoxy-4-[7-(2-methoxy-phenyl)-pyrrolo[2,1-f][1,2,4]triazin-2-ylamino]-phenyl}-piperidin-1-yl)-2-methyl-propan-2-ol], the IC50 at JAK2 is 100 to 1000 nM; on ALK, < 100 nM.

`COc1cc(C2CCN(CC(C)(C)O)CC2)ccc1Nc1ncc2ccc(-c3ccccc3N(C)S(C)(=O)=O)n2n1` [Example 866, N-[2-(2-{4-[1-(2-Hydroxy-2-methyl-propyl)-piperidin-4-yl]-2-methoxy-phenylamino}-pyrrolo[2,1-f][1,2,4]triazin-7-yl)-phenyl]-N-methyl-methanesulfonamide]: the figures for the IC50 at JAK2 and on ALK were 100 to 1000 nM and < 100 nM, respectively.

As for `CNC(=O)CN1CCC(c2ccc(Nc3ncc4ccc(-c5ccccc5OC)n4n3)c(OC)c2)CC1` [Example 867, 2-(4-{3-Methoxy-4-[7-(2-methoxy-phenyl)-pyrrolo[2,1-f][1,2,4]triazin-2-ylamino]-phenyl}-piperidin-1-yl)-N-methyl-acetamide], the IC50 at JAK2 is 100 to 1000 nM; on ALK, < 100 nM.

On to `COc1cc(C2CCN(Cc3ncc[nH]3)CC2)ccc1Nc1ncc2ccc(-c3ccccc3OC)n2n1` [Example 868, {4-[1-(1H-Imidazol-2-ylmethyl)-piperidin-4-yl]-2-methoxy-phenyl}-[7-(2-methoxy-phenyl)-pyrrolo[2,1-f][1,2,4]triazin-2-yl]-amine], for which the IC50 on JAK2 is 100 to 1000 nM; on ALK, < 100 nM.

Turning to `COc1cc2c(cc1Nc1ncc3ccc(-c4ccccc4N(C)S(C)(=O)=O)n3n1)CN(CC(N)=O)C2` [Example 869, 2-(5-{7-[2-(Methanesulfonyl-methyl-amino)-phenyl]-pyrrolo[2,1-f][1,2,4]triazin-2-ylamino}-6-methoxy-1,3-dihydro-isoindol-2-yl)-acetamide], the IC50 at JAK2 was 100 to 1000 nM; on ALK it was < 100 nM.

Take `CNC(=O)CN1CCC(c2ccc(Nc3ncc4ccc(-c5ccccc5N(C)S(C)(=O)=O)n4n3)c(OC)c2)CC1` [Example 870, 2-[4-(4-{7-[2-(Methanesulfonyl-methyl-amino)-phenyl]-pyrrolo[2,1-f][1,2,4]triazin-2-ylamino}-3-methoxy-phenyl)-piperidin-1-yl]-N-methyl-acetamide]: the IC50 was 100 to 1000 nM at JAK2 and < 100 nM at ALK.

Take `CCN(c1ccccc1-c1ccc2cnc(Nc3ccc(C4CCN(C[C@H](O)CO)CC4)cc3OC)nn12)S(C)(=O)=O` [Example 872, N-[2-(2-{4-[1-((S)-2,3-Dihydroxy-propyl)-piperidin-4-yl]-2-methoxy-phenylamino}-pyrrolo[2,1-f][1,2,4]triazin-7-yl)-phenyl]-N-ethyl-methanesulfonamide]: the IC50 at JAK2 is 100 to 1000 nM; on ALK, < 100 nM.

As to `CCN(c1ccccc1-c1ccc2cnc(Nc3ccc(C4CCN(C[C@@H](C)O)CC4)cc3OC)nn12)S(C)(=O)=O` [Example 873, N-Ethyl-N-[2-(2-{4-[1-((R)-2-hydroxy-propyl)-piperidin-4-yl]-2-methoxy-phenylamino}-pyrrolo[2,1-f][1,2,4]triazin-7-yl)-phenyl]-methanesulfonamide], the figures for the IC50 at JAK2 and at ALK were 100 to 1000 nM and < 100 nM, respectively.

For the compound `COc1cc2c(cc1Nc1ncc3ccc(-c4ccccc4OC)n3n1)CN(C(=O)OC(C)(C)C)C2` [Example 874, 5-Methoxy-6-[7-(2-methoxy-phenyl)-pyrrolo[2,1-f][1,2,4]triazin-2-ylamino]-1,3-dihydro-isoindole-2-carboxylic acid tert-butyl ester], the IC50 at JAK2 and at ALK was 1000 to 10000 nM each time.

`COc1cc2c(cc1Nc1ncc3ccc(-c4ccccc4N(C)S(C)(=O)=O)n3n1)CN(C(=O)OC(C)(C)C)C2` [Example 875, 5-{7-[2-(Methanesulfonyl-methyl-amino)-phenyl]-pyrrolo[2,1-f][1,2,4]triazin-2-ylamino}-6-methoxy-1,3-dihydro-isoindole-2-carboxylic acid tert-butyl ester]: the results for the IC50 on JAK2 and on ALK were > 10000 nM and 1000 to 10000 nM, respectively.

Turning to `COc1cc2c(cc1Nc1ncc3ccc(-c4ccccc4N(C)S(C)(=O)=O)n3n1)CN(C(C)C)C2` [Example 876, N-{2-[2-(2-Isopropyl-6-methoxy-2,3-dihydro-1H-isoindol-5-ylamino)-pyrrolo[2,1-f][1,2,4]triazin-7-yl]-phenyl}-N-methyl-methanesulfonamide], the IC50 is 100 to 1000 nM on JAK2 and < 100 nM at ALK.

`COc1cc2c(cc1Nc1ncc3ccc(-c4ccccc4OC)n3n1)CN(C(C)C)C2` [Example 877, (2-Isopropyl-6-methoxy-2,3-dihydro-1H-isoindol-5-yl)-[7-(2-methoxy-phenyl)-pyrrolo[2,1-f][1,2,4]triazin-2-yl]-amine]: the IC50 at JAK2 and on ALK was < 100 nM each time.

For the compound `COc1cc2c(cc1Nc1ncc3ccc(-c4ccccc4OC)n3n1)CN(C(=O)CN)C2` [Example 878, 2-Amino-1-{5-methoxy-6-[7-(2-methoxy-phenyl)-pyrrolo[2,1-f][1,2,4]triazin-2-ylamino]-1,3-dihydro-isoindol-2-yl}-ethanone], the IC50 on JAK2 and at ALK was < 100 nM throughout.

On to `COc1cc2c(cc1Nc1ncc3ccc(-c4ccccc4N(C)S(C)(=O)=O)n3n1)CN(C(=O)CN)C2` [Example 879, N-(2-{2-[2-(2-Amino-acetyl)-6-methoxy-2,3-dihydro-1H-isoindol-5-ylamino]-pyrrolo[2,1-f][1,2,4]triazin-7-yl}-phenyl)-N-methyl-methanesulfonamide], for which the IC50 is 100 to 1000 nM at JAK2 and < 100 nM at ALK.

On to `CC(=O)Nc1cccc(Nc2ncc3ccc(-c4cccc(NC(=O)C(C)(C)C)c4)n3n2)c1` [Example 881, N-{3-[2-(3-Acetylamino-phenylamino)-pyrrolo[2,1-f][1,2,4]triazin-7-yl]-phenyl}-2,2-dimethyl-propionamide], for which the IC50 was < 100 nM at JAK2 and 1000 to 10000 nM on ALK.

As for `CC(=O)N1CCc2ccc(Nc3ncc4ccc(-c5cccc(NC(=O)C(C)(C)C)c5)n4n3)cc21` [Example 882, N-{3-[2-(1-Acetyl-2,3-dihydro-1H-indol-6-ylamino)-pyrrolo[2,1-f][1,2,4]triazin-7-yl]-phenyl}-2,2-dimethyl-propionamide], the IC50 on JAK2 was < 100 nM; on ALK it was > 10000 nM.

In the case of `CN1CCN(c2cccc(Nc3ncc4ccc(-c5cccc(S(=O)(=O)NC(C)(C)C)c5)n4n3)c2)CC1` [Example 883, N-tert-Butyl-3-{2-[3-(4-methyl-piperazin-1-yl)-phenylamino]-pyrrolo[2,1-f][1,2,4]triazin-7-yl}-benzenesulfonamide], the IC50 at JAK2 and on ALK was < 100 nM each time.

Turning to `CC(=O)Nc1cccc(Nc2ncc3ccc(-c4cccc(S(=O)(=O)N5CC[C@H](O)C5)c4)n3n2)c1` [Example 884, N-(3-{7-[3-((S)-3-Hydroxy-pyrrolidine-1-sulfonyl)-phenyl]-pyrrolo[2,1-f][1,2,4]triazin-2-ylamino}-phenyl)-acetamide], the IC50 at JAK2 is < 100 nM; on ALK, 1000 to 10000 nM.

For `CC(=O)N1CCc2ccc(Nc3ncc4ccc(-c5cccc(S(=O)(=O)N6CC[C@H](O)C6)c5)n4n3)cc21` [Example 885, 1-(6-{7-[3-((S)-3-Hydroxy-pyrrolidine-1-sulfonyl)-phenyl]-pyrrolo[2,1-f][1,2,4]triazin-2-ylamino}-2,3-dihydro-indol-1-yl)-ethanone], the results for the IC50 at JAK2 and on ALK were < 100 nM and 1000 to 10000 nM, respectively.

Regarding `CC(=O)Nc1cccc(Nc2ncc3ccc(-c4cccc(C(=O)NC(C)(C)C)c4)n3n2)c1` [Example 886, 3-[2-(3-Acetylamino-phenylamino)-pyrrolo[2,1-f][1,2,4]triazin-7-yl]-N-tert-butyl-benzamide], the IC50 on JAK2 is < 100 nM; on ALK it was 1000 to 10000 nM.

As to `CC(=O)N1CCc2ccc(Nc3ncc4ccc(-c5cccc(C(=O)NC(C)(C)C)c5)n4n3)cc21` [Example 887, 3-[2-(1-Acetyl-2,3-dihydro-1H-indol-6-ylamino)-pyrrolo[2,1-f][1,2,4]triazin-7-yl]-N-tert-butyl-benzamide], the IC50 at JAK2 was 100 to 1000 nM; at ALK, > 10000 nM.
